Source: patent US11685726B2, “Pharmaceutical compositions of 6-(2-(2H-tetrazol-5-yl)ethyl)-6-fluorodecahydroisoquinoline-3-carboxylic acid and ester derivatives thereof” (Sea Pharmaceuticals LLC, priority 2020, dated 2023)

Legend:
[1] = Irwin neurological test battery in rats (SAD and MAD studies); assay type: in vivo, rat
Procedure: Rats were subjected to the Irwin Test Procedure of in vivo assessment of test compounds effects on neurological functions in rodents which was modified for rats. Rats were acclimated to the procedure room for at least 30 minutes. Rats were assessed for the features described below. Each rat was scored on a 0 to 3 scale with 0 representing the response in a normal animal and 3 representing a maximally impaired animal. Note that it is normal for an animal to score within the 0 to 1 range during Irwin testing. Animals were tested 55-60 min after test compound administration. Reference: Irwin, S. 20 Sep. 1968; “Comprehensive observational assessment: la. A symptomatic quantitative procedure for assessing the behavioral and physiologic state of the mouse” Psychopharmacologia 13(3): 222-257.
Single Ascending Dose (SAD) 1-day acute administration of test compound 2 by the oral PO route of administration to rats and samples collected at the timepoints described for subsequent extraction, dissolution and quantitative LCMS bioanalysis. […]
Multiple Ascending Dose (MAD) 5-day once daily administration of test compounds was done to rats and samples collected at the timepoints described for subsequent extraction, dissolution and quantitative LCMS bioanalysis. […]

NMDA receptor = experiment: Whole cell patch-clamp recording of NMDA induced currents in pyramidal neurons of rat brain prefrontal cortex slices; assay type: cell-based; settings: Tested at 30 pM (so in the source); 50 μM NMDA; rat brain cortex slices
Procedure: Additionally biological activity of compounds as antagonists of AMPA receptors or NMDA receptors (also called ionotropic glutamate-gated ion channels) were conducted using ex vivo functional electrophysiological assays of pyramidal neurons in slices of rat brain prefrontal cortex. Effects of test compounds cf. reference compounds were studied by whole cell patch-clamp electrophysiology recordings of s-AMPA-induced currents or NMDA-induced currents, respectively, using rat brain slice prefrontal cortex (layer V) pyramidal neurons.
Male Sprague Dawley rats were supplied by Charles River Laboratories (Wilmington, Mass. USA) and were housed 4 per cage within a temperature (20.5-23.5° C.) and humidity (30-80%) controlled environment on a 12 hour light/dark cycle with access to food (Teklad Global Soy Protein, Cat. No. T.2920X10, Envigo, Indianapolis, Ind., USA) and water ad libitum. […]
All test compound experiments were carried out in the voltage-clamp recording configuration of the whole cell patch-clamp technique and all recordings performed at a holding potential of −60 mV. Recordings were monitored on a Dell personal computer (PC) running Axon pClamp software (Molecular Devices, Sunnyvale, Calif., USA) and digitized at 10 kHz. […]

[2] = Rat behavior observations for signs of motor impairment by trained observer; assay type: in vivo; settings: 6 mg/kg subcutaneous, rats, 30 minute observation period
Procedure: Rat behavior pharmacology observations for signs of motor impairment by trained observer. Rats were monitored after dosing for any signs of impairment by Compound 1 administered as 6 mg/kg dose by subcutaneous route.

Row | Compound | Irwin test observations, SAD study ([1]; oral 10-200 mg/kg, day 1, 55-60 minutes post treatment) | Irwin test observations, MAD study ([1]; oral once daily 5 days, day 3 and day 5, 55-60 minutes post treatment) | % inhibition +/- SEM of NMDA induced currents in neurons (NMDA receptor) | signs of motor impairment / tolerability or neurological changes [2]
1 | O=C(O)[C@@H]1C[C@H]2CC(F)(CCc3nnn[nH]3)CC[C@H]2CN1 (stereo in doubt) [Compound 2, (3S,4aS,6R,8aR)-6-fluoro-6-[2-(1H-1,2,3,4-tetrazol-5-yl)ethyl]-decahydroisoquinoline-3-carboxylic acid] | Normal or very little change from normal was observed for many of the doses | Normal or very little change from normal was observed for many of the doses |  | 
2 | O=C(O)[C@@H]1C[C@H]2C[C@@](F)(CCc3nnn[nH]3)CC[C@H]2CN1 [Compound 1, (3S,4aS,6S,8aR)-6-fluoro-6-[2-(1H-1,2,3,4-tetrazol-5-yl)ethyl]-decahydroisoquinoline-3-carboxylic acid] |  |  | 61.0 ± 6.3 (n = 3) % | No tolerability or neurological changes were observed
